In the experiment the target is Poly [ADP-ribose] polymerase 1 (Homo sapiens, UniProt P09874). The experiment is described as follows: Inhibition of PARP-1 (unknown origin) using biotinylated NAD+ as substrate after 60 mins by spectrophotometry.
Chain of Poly [ADP-ribose] polymerase 1 (P09874 whole entry): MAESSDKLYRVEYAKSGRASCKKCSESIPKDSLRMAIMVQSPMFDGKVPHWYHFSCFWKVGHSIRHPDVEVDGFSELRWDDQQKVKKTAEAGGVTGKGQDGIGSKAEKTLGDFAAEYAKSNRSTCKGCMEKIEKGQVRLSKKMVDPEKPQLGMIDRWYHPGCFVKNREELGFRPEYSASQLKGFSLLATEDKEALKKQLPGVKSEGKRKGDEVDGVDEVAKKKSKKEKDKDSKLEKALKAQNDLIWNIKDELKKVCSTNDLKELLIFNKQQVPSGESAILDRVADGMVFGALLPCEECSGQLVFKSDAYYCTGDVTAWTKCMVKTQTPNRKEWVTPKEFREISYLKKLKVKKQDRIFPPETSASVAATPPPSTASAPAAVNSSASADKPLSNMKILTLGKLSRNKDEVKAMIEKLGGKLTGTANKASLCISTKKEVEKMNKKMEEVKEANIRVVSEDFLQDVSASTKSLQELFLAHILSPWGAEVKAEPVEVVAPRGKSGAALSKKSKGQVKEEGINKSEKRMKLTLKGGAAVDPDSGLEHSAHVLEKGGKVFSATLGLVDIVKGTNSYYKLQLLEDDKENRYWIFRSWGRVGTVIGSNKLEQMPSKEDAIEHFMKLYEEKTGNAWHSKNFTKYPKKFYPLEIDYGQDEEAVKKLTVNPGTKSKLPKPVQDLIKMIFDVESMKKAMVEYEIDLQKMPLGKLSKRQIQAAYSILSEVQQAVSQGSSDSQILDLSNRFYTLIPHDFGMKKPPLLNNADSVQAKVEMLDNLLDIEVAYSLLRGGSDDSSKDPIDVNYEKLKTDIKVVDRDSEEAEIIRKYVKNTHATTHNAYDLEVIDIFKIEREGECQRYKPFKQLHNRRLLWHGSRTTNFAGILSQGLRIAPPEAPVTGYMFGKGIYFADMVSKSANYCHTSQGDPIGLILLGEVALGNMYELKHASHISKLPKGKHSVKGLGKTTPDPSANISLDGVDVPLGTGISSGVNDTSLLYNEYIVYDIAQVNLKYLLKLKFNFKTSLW

The term IC50 denotes the concentration that inhibits the measured activity by half. High values mean lower potency, low ones higher potency. Take `CC1Cc2c(N)ccc(C(N)=O)c2O1` (stereo unspecified): the IC50 was 4.65 µM.

Values taken from BindingDB's records for doi:10.1021/jm5002502 (St. John'S University, 2014).
